# Source: US9399639B2, “Substituted azaindole compounds, salts, pharmaceutical compositions thereof and methods of use” (Calitor Sciences, LLC, priority 2012, dated 2016)
# Columns and labels:
# [1] = Compound stability in human liver microsomes; assay type: in vitro ADME; settings: 1 μM
# Experimental: (§1) Human or rat liver microsomes incubations were conducted in duplicate in polypropylene tubes. […] Compounds were dissolved in DMSO and diluted with PBS such that the final concentration of DMSO was 0.05%. The enzymatic reactions were commenced with the addition of protein after a 3 min preincubation and incubated in a water bath open to the air at 37° C. Reactions were terminated at various time points (0, 5, 10, 15, 30, 60 min) by adding equal volume of ice-cold acetonitrile. The samples were stored at −80° C. until LC/MS/MS assays.
# (§2) The concentrations of compounds in the incubation mixtures of human (or rat) liver microsomes were determined by a LC/MS/MS method. The ranges of the linearity in the concentration range were determined for each tested compounds.
# (§3) A parallel incubation was performed using denatured microsomes as the negative control, and reactions were terminated at various time points (for example, 0, 15, 60 min) after incubation at 37° C.
# (§4) Dextromethorphan (70 μM) was selected as the positive control, and reactions were terminated at various time points (0, 5, 10, 15, 30, 60 min) after incubation at 37° C. Both positive and negative control samples were included in each assay to ensure the integrity of the microsomal incubation system.
# (§5) Alternatively, the stability of some of the compounds disclosed herein in human (or rat) liver microsomes were also conducted in the following protocol. The incubations were conducted in duplicate in polypropylene tubes. […] Compounds were dissolved in DMSO and diluted with K-buffer such that the final concentration of DMSO was 0.2%. The enzymatic reactions were commenced with the addition of 15 μL of NADPH (final concentration: 2 mM) after 10 min preincubation and incubated in a 37° C. incubator. Reactions were terminated at various time points (0, 15, 30, 60 min) by adding 135 μL acetonitrile (contain IS). Protein is removed by centrifugation with 4,000 rpm, 10 min.
# (§6) In the above protocol, ketanserin (1 μM) was selected as the positive control, and reactions were terminated at various time points (0, 15, 30, 60 min) after incubation at 37° C. The positive control sample was included in each assay to ensure the integrity of the microsomal incubation system.
# (§7) The concentrations of compounds in liver microsome incubations were plotted as a percentage of the relevant zero time point control for each reaction. The in vivo CLint were extrapolated (ref: Naritomi et al., Prediction of human hepatic clearance from in vivo animal experiments and in vitro metabolic studies with liver microsomes from animals and humans, Drug Metab. Dispos., 2001, 29: 1316-1324.) […]
# Colo-205 Tumor Xenograft = experiment: Colo-205 tumor xenograft model, tumor growth inhibition; assay type: in vivo, athymic nude mice; settings: Colo-205 xenograft, p.o., 15 days
# Experimental: The efficacy of compounds disclosed herein is evaluated in a standard murine model of tumorigenesis. Human tumor cells (i.e., Colo-205 Tumor Xenograft models) are expended in culture, harvested, and injected subcutaneously onto the rear flank of 6-7 week old female athymic nude mice (BALB/cA nu/nu, Shanghai SLAC Laboratory Animal, Co.) (n=10 for vehicle group, n=8 for each dosing group). When tumor reaches a volume of 100-250 mm^3, animals are randomly divided into vehicle control (for example, 5% PEG400+5% Solutol HS 15 in water or 5% EtOH+5% CremophorEL+1% HCl (11.7%), pH 2.2 in water) and compound groups. Subsequent administration of compound by oral gavage (for example, 6-60 mpk/dose, dissolved in 5% PEG400+5% Solutol HS 15 in water or 5% EtOH+5% CremophorEL+1% HCl (11.7%), pH 2.2 in water) begins anywhere from day 0 to day 15 post tumor cell challenge and generally continues with once a day for the duration of the experiment.
# Progression of tumor growth is assessed by tumor volumes and recorded as a function of time. The long (L) and short (W) axes of the subcutaneous tumors are measured with calipers twice weekly, and the tumor volume (TV) calculated as (L×W^2)/2). TGI is calculated from the difference between the median tumor volumes of vehicle-treated and drug-treated mice, expressed as a percentage of the median tumor volume of the vehicle-treated control group, by the following relation:
# Initial statistical analysis is done by repeated measures analysis of variance (RMANOVA), Followed by Scheffe post-hoc testing for multiple comparisons. Vehicle alone (2% HPMC+1% Tween-80, or the like) is the negative control.
# The compouds described herein were also administrated orally (p.o.) once a day (QD) or (BID) for 15 days in Colo-205 xenograft animal model. At doses of 20 mg/kg, the compouds produced statistically significant inhibition of growth of certain tumors grown subcutaneously in athymic nude mice.
# [2] = Compound stability in rat liver microsomes; assay type: in vitro ADME; settings: 1 μM
# Experimental: as §1, §2, §3, §4, §5, §6, §7
# [3] = Pharmacokinetics in SD rats; assay type: in vivo; settings: vemurafenib dosed
# Description: (§8) Compounds disclosed herein are prodrugs. […] However, the prodrug compounds are modified in vivo to produce a parent compound that has known inhibitory activities against certain protein kinases. Kinase inhibition activity of prodrug compounds is established by quantitating the blood or plasma levels of parent compound after prodrug administration. In vivo blood or plasma levels are reported as Cmax (maximum blood or plasma concentration) and AUC (area under curve from zero to a certain period of time or infinity, a measure of total drug exposure). Methods of measuring Cmax, AUC and other pharmacokinetic parameters in dogs and rats are provided in Example C.
# (§9) The LC/MS/MS system used in the analysis consists of an Agilent 1200 Series vacuum degasser, binary pump, well-plate autosampler, thermostated column compartment, the Agilent G6430 TripleQuadrupole Mass Spectrometer with an electrospray ionization (ESI) source. Quantitative analysis was carried out using MRM mode. The parameters for MRM transitions are in the Table A.
# (§10) An Agilent XDB-C18, 2.1×30 mm, 3.5 μM column was used for the analysis. 5 μL of the samples were injected. Analysis condition: The mobile phase was 0.1% formic acid in water (A) and 0.1% formic acid in methanol (B). The flow rate was 0.4 mL/min. And the gradient of Mobile phase was in the Table B.
# (§11) Alternatively, an Agilent 6330 series LC/MS/MS spectrometer equipped with G1312A binary pumps, a G1367A autosampler and a G1314C UV detector was used in the analysis. An ESI source was used on the LC/MS/MS spectrometer. The analysis was done in positive ion mode as appropriate and the MRM transition for each analyte was optimized using standard solution. A Capcell MP-C18 100×4.6 mm I.D., […] column (Phenomenex, Torrance, Calif., USA) was used during the analysis. The mobile phase was 5 mM ammonia acetate, 0.1% MeOH in water (A): 5 mM ammonia acetate, 0.1% MeOH in acetonitrile (B) (70:30, v/v). The flow rate was 0.6 mL/min. Column was maintained at ambient temperature. 20 μL of the samples were injected.
# (§12) Selected compounds of the invention and Vemurafenib were assessed in pharmacokinetic studies in mice, rats, dogs or monkeys. The compounds were administered as a water solution, 2% HPMC+1% TWEEN® 80 in water solution, 5% DMSO+5% solutol in saline, 4% MC or capsule. For the intravenous administration, the animals were generally given at 1 or 2 mg/kg dose. For the oral (p.o.) dosing, mice and rats were generally given 5 or 10 mg/kg dose, and dogs and monkeys were generally given 7-100 mg/kg dose. The blood samples (0.3 mL) were drawn at 0.25, 0.5, 1.0, 2.0, 3.0, 4.0, 6.0, 8.0, 12 and 24 h time points or 0.083, 0.25, 0.5, 1.0, 2.0, 4.0, 6.0, 8.0 and 24 h time points and centrifuged at 3,000 or 4000 rpm for 2 to 10 min. The plasma solutions are collected and stored at −20° C. or −70° C. before analyzed by LC/MS/MS as described above.
# [4] = Pharmacokinetics in beagle dogs; assay type: in vivo; settings: vemurafenib dosed
# Description: as §8, §9, §10, §11, §12
# [5] = cited from earlier work
# B-Raf = B-Raf V600E vs wild-type, purified kinase assays; cited from earlier work
# [6] = Sprague-Dawley, rat, plasma, IV 1 mg/kg
# [7] = Sprague-Dawley, rat, plasma, PO 10 mg/kg
Human T1/2 [1],Rat T1/2 [2],SMILES,TGI % (on the last day of dosing) (Colo-205 Tumor Xenograft; 6 mg/kg/qd),TGI % (on the last day of dosing) (Colo-205 Tumor Xenograft; 20 mg/kg/bid),TGI % (on the last day of dosing) (Colo-205 Tumor Xenograft; 20 mg/kg/qd),TGI % (on the last day of dosing) (Colo-205 Tumor Xenograft; 60 mg/kg/qd),also measured
∞,∞,"CCCS(=O)(=O)Nc1ccc(F)c(C(=O)c2cn(COP(=O)([O-])[O-])c3ncc(-c4ccc(Cl)cc4)cc23)c1F.[Na+].[Na+] [Ex. 25, sodium (5-(4-chlorophenyl)-3-(2,6-difluoro-3-(propylsulfonamido)benzoyl)-1H-pyrrolo[2,3-b]pyridin-1-yl)methyl phosphate]",41%,95%,59%,108%,–
∞,∞,"CCCS(=O)(=O)Nc1ccc(F)c(C(=O)c2cn(C(C)OP(=O)([O-])[O-])c3ncc(-c4ccc(Cl)cc4)cc23)c1F.[Na+].[Na+] (centres unmarked) [Ex. 32, sodium 1-(5-(4-chlorophenyl)-3-(2,6-difluoro-3-(propylsulfonamido)benzoyl)-1H-pyrrolo[2,3-b]pyridin-1-yl)ethyl phosphate]",29%,102%,68%,110%,–
–,–,"CCCS(=O)(=O)Nc1ccc(F)c(C(=O)c2c[nH]c3ncc(-c4ccc(Cl)cc4)cc23)c1F [Vemurafenib, N-(3-(5-(4-chlorophenyl)-1H-pyrrolo[2,3-b]pyridine-3-carbonyl)-2,4-difluorophenyl)propane-1-sulfonamide]",33%,101%,73%,104%,"F ([3]; PO 10 mg/kg): 104%; AUC(0-t) [3, 6]: 25200 ng·h/mL; half-life [3, 6]: 3.75 h; AUC(0-t) [3, 7]: 261000 ng·h/mL; Cmax [3, 7]: 25400 ng/mL; Tmax [3, 7]: 4 h; half-life [3, 7]: 3.54 h; F ([4]; PO 10 mg/kg): 33.4%; AUC(0-t) ([4]; dog, plasma, IV 1 mg/kg): 4880 ng·h/mL; half-life ([4]; dog, plasma, IV 1 mg/kg): 1.59 h; AUC(0-t) ([4]; dog, plasma, PO 10 mg/kg): 16500 ng·h/mL; Cmax ([4]; dog, plasma, PO 10 mg/kg): 2150 ng/mL; Tmax ([4]; dog, plasma, PO 10 mg/kg): 2 h; half-life ([4]; dog, plasma, PO 10 mg/kg): 3.9 h; solubility in water [5]: low solubility in water; selectivity for the V600E mutation over the wild-type kinase (B-Raf): 3 fold"
